Test results published in patent publication US20230139171A1 (SITA Information Networking Computing UK Limited, priority 2019, published 2023).

Assays:
Type in all cases: cell-based
[1] = molecular target: T1, human TLR8 (Homo sapiens, UniProt Q9NR97); test: TLR8 inhibition reporter assay (HEK-Blue cells, SEAP reporter, R848 stimulation); settings: HEK-Blue cells overexpressing human TLR8, SEAP reporter, R848 15.9 μM; read-out: TLR8 IC50
T1 construct: host or cells: HEK-Blue cells
T1 sequence (Q9NR97 27-1041): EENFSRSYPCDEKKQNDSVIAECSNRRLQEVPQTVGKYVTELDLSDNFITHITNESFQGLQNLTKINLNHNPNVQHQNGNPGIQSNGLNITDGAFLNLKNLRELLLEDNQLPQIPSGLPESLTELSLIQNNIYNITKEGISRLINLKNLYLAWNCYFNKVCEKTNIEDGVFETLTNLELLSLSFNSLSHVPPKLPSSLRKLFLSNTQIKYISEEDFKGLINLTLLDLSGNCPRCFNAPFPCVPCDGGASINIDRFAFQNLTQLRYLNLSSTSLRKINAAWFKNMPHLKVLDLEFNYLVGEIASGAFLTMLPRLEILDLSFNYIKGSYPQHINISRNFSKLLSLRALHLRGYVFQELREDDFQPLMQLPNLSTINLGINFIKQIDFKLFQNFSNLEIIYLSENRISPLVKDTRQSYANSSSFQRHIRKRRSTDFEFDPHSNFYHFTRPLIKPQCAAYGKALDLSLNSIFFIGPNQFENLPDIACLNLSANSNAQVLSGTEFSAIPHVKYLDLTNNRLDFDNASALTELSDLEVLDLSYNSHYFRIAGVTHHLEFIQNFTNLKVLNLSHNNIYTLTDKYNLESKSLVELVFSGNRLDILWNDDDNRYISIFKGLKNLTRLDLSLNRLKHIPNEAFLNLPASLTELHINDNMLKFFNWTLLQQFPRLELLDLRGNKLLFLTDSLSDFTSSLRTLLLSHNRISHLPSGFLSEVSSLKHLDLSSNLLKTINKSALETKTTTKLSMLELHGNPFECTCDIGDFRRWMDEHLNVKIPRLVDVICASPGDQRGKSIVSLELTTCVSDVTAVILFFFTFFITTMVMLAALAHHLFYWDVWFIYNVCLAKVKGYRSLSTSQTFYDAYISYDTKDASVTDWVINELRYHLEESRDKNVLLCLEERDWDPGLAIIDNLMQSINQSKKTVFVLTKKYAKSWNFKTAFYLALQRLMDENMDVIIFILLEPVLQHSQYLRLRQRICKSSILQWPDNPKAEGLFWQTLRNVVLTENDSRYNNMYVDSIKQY
Outline: (§1)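 HEK-Blue cells overexpressing human TLR7, TLR8 or TLR9 carry a SEAP reporter driven by NF-κB/AP-1 sites. Compounds (0.05 nM–50 μM) were preincubated 30 min at room temperature, then cells were stimulated with gardiquimod 7.5 μM (TLR7), R848 15.9 μM (TLR8) or ODN2006 5 nM (TLR9) for 22 h at 37 °C.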

[2] = molecular target: T2, human TLR7 (Homo sapiens, UniProt Q9NYK1); test: TLR7 inhibition reporter assay (HEK-Blue cells, SEAP reporter, gardiquimod stimulation); settings: HEK-Blue cells overexpressing human TLR7, SEAP reporter, gardiquimod 7.5 μM; read-out: TLR7 IC50
T2 construct: host or cells: HEK-Blue cells
T2 sequence (Q9NYK1 27-1049): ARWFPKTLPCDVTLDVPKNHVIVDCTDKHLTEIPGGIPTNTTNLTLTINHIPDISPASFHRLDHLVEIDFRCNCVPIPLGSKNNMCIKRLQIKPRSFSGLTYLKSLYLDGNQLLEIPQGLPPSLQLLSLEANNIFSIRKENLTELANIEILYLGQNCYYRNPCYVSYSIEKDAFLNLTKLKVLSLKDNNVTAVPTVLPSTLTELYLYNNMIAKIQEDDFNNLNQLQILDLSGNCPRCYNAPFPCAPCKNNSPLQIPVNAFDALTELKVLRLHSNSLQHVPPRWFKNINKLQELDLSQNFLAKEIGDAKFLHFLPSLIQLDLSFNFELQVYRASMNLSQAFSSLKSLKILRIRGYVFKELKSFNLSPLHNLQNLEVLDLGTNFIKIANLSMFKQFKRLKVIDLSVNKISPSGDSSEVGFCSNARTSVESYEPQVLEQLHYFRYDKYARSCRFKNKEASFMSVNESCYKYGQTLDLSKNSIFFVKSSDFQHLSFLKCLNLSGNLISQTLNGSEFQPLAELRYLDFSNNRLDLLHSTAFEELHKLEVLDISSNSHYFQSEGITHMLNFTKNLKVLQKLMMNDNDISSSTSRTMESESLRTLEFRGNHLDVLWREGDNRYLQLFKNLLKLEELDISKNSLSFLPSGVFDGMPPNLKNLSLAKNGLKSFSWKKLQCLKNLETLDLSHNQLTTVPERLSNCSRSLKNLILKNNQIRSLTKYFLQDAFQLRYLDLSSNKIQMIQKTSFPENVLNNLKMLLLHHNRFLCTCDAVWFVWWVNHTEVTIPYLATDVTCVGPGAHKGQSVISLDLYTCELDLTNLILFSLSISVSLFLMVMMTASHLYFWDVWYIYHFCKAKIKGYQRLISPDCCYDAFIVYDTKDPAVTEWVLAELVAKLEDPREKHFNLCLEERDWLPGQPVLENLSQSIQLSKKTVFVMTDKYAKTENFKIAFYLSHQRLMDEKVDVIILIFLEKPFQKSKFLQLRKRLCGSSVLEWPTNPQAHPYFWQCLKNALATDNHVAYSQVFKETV
Outline: as §1

[3] = molecular target: T3, human TLR9 (Homo sapiens, UniProt Q9NR96); test: TLR9 inhibition reporter assay (HEK-Blue cells, SEAP reporter, ODN2006 stimulation); settings: HEK-Blue cells overexpressing human TLR9, SEAP reporter, ODN2006 5 nM
T3 construct: host or cells: HEK-Blue cells
T3 sequence (Q9NR96 26-1032): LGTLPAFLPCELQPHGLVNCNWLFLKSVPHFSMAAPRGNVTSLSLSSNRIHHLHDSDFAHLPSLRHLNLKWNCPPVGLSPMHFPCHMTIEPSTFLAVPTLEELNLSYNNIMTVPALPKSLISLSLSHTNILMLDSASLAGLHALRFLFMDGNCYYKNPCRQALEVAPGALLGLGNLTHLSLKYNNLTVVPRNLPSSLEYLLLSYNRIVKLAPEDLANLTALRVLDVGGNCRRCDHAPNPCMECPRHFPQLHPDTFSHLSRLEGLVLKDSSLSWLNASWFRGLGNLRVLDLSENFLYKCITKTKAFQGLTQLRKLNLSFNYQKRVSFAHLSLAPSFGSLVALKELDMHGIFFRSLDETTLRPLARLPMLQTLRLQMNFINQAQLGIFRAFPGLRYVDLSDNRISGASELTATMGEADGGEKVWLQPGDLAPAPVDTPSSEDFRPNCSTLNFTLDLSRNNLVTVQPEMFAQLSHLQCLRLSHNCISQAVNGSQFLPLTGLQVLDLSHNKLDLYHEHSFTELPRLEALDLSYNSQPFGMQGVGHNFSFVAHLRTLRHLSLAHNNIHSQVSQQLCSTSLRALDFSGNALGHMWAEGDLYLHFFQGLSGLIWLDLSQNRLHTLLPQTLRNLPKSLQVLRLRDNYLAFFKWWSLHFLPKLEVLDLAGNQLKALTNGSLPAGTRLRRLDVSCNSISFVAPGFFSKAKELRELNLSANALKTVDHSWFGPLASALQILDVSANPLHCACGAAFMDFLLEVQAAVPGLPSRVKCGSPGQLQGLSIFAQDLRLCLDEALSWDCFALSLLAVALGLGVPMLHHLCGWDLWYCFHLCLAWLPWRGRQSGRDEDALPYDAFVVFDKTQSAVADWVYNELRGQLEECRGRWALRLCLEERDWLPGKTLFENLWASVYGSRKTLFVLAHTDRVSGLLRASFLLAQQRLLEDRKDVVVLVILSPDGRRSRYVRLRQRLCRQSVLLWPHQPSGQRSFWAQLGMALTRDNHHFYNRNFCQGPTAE
Outline: as §1

Row | Structure (SMILES) | IC50 [1] [nM] | IC50 [2] [nM] | IC50 [3] [nM]
1 | Cc1c(-c2[nH]c3sc(C4CCC(NC5COC5)CC4)nc3c2C(C)C)cn2ncnc2c1C (single isomer, unassigned) [Example 184, N-(4-(5-(7,8-dimethyl-[1,2,4]triazolo[1,5-a]pyridin-6-yl)-6-isopropyl-4H-pyrrolo[3,2-d]thiazol-2-yl)cyclohexyl)oxetan-3-amine] | 0.84 | 1.01 | 11400
2 | Cc1c(-c2[nH]c3sc(C4CCC(NC5COC5)CC4)nc3c2C(C)C)cn2ncnc2c1C (single isomer, unassigned) [Example 185, N-(4-(5-(7,8-dimethyl-[1,2,4]triazolo[1,5-a]pyridin-6-yl)-6-isopropyl-4H-pyrrolo[3,2-d]thiazol-2-yl)cyclohexyl)oxetan-3-amine] | 3.38 | 7.42 | 23000
3 | COC(C)(C)CNC1CCC(c2nc3c(C(C)C)c(-c4cn5ncnc5c(C)c4C)[nH]c3s2)CC1 (single isomer, unassigned) [Example 186, 4-(5-(7,8-dimethyl-[1,2,4]triazolo[1,5-a]pyridin-6-yl)-6-isopropyl-4H-pyrrolo[3,2-d]thiazol-2-yl)-N-(2-methoxy-2-methylpropyl)cyclohexan-1-amine] | 0.21 | 1.59 | 5920
4 | COC(C)(C)CNC1CCC(c2nc3c(C(C)C)c(-c4cn5ncnc5c(C)c4C)[nH]c3s2)CC1 (single isomer, unassigned) [Example 187, 4-(5-(7,8-dimethyl-[1,2,4]triazolo[1,5-a]pyridin-6-yl)-6-isopropyl-4H-pyrrolo[3,2-d]thiazol-2-yl)-N-(2-methoxy-2-methylpropyl)cyclohexan-1-amine] | 4.25 | 10.4 | 8720
5 | COC1CN(C2CCC(c3nc4c(C(C)C)c(-c5cn6ncnc6c(C)c5C)[nH]c4s3)CC2)C1 (single isomer, unassigned) [Example 188, 5-(7,8-dimethyl-[1,2,4]triazolo[1,5-a]pyridin-6-yl)-6-isopropyl-2-(4-(3-methoxyazetidin-1-yl)cyclohexyl)-4H-pyrrolo[3,2-d]thiazole] | 0.58 | 0.71 | 10800
6 | COC1CN(C2CCC(c3nc4c(C(C)C)c(-c5cn6ncnc6c(C)c5C)[nH]c4s3)CC2)C1 (single isomer, unassigned) [Example 189, 5-(7,8-dimethyl-[1,2,4]triazolo[1,5-a]pyridin-6-yl)-6-isopropyl-2-(4-(3-methoxyazetidin-1-yl)cyclohexyl)-4H-pyrrolo[3,2-d]thiazole] | 5.18 | 3.35 | 10000
7 | CCN(C)C1CCC(c2nc3c(C(C)C)c(-c4cn5ncnc5c(C)c4C)[nH]c3s2)CC1 (single isomer, unassigned) [Example 190, 4-(5-(7,8-dimethyl-[1,2,4]triazolo[1,5-a]pyridin-6-yl)-6-isopropyl-4H-pyrrolo[3,2-d]thiazol-2-yl)-N-ethyl-N-methylcyclohexan-1-amine] | 0.58 | 0.8 | 8350
8 | CCN(C)C1CCC(c2nc3c(C(C)C)c(-c4cn5ncnc5c(C)c4C)[nH]c3s2)CC1 (single isomer, unassigned) [Example 191, 4-(5-(7,8-dimethyl-[1,2,4]triazolo[1,5-a]pyridin-6-yl)-6-isopropyl-4H-pyrrolo[3,2-d]thiazol-2-yl)-N-ethyl-N-methylcyclohexan-1-amine] | 1.79 | 1.5 | 9370
9 | Cc1c(-c2[nH]c3sc(C4CCC(N5CC6(COC6)C5)CC4)nc3c2C(C)C)cn2ncnc2c1C (single isomer, unassigned) [Example 192, 6-(4-(5-(7,8-dimethyl-[1,2,4]triazolo[1,5-a]pyridin-6-yl)-6-isopropyl-4H-pyrrolo[3,2-d]thiazol-2-yl)cyclohexyl)-2-oxa-6-azaspiro[3.3]heptane] | 0.33 | 1.67 | 16200
10 | Cc1c(-c2[nH]c3sc(C4CCC(N5CC6(COC6)C5)CC4)nc3c2C(C)C)cn2ncnc2c1C (single isomer, unassigned) [Example 193, 6-(4-(5-(7,8-dimethyl-[1,2,4]triazolo[1,5-a]pyridin-6-yl)-6-isopropyl-4H-pyrrolo[3,2-d]thiazol-2-yl)cyclohexyl)-2-oxa-6-azaspiro[3.3]heptane] | 4.45 | 1.97 | 7630
11 | Cc1c(-c2[nH]c3sc(C4CCC(NC(C)C)CC4)nc3c2C(C)C)cn2ncnc2c1C (single isomer, unassigned) [Example 194, 4-(5-(7,8-dimethyl-[1,2,4]triazolo[1,5-a]pyridin-6-yl)-6-isopropyl-4H-pyrrolo[3,2-d]thiazol-2-yl)-N-isopropylcyclohexan-1-amine] | 0.37 | 0.9 | 9220
